Data published in ChEMBL document CHEMBL4376834, “Discovery of 4H-Chromen-4-one Derivatives as a New Class of Selective Rho Kinase (ROCK) Inhibitors, which Showed Potent Activity in ex Vivo Diabetic Retinopathy Models” (J Med Chem, 2019).

How the values were obtained:
Activin receptor type-1B = Activin receptor type-1B (Homo sapiens, UniProt P36896); assay: Inhibition of human recombinant ALK4 (150 to end residues) using casein as substrate incubated for 40 mins in presence of [gamma-33P]ATP by radiometric scintillation counting analysis
Activin receptor type-1B, sequence (P36896 whole entry): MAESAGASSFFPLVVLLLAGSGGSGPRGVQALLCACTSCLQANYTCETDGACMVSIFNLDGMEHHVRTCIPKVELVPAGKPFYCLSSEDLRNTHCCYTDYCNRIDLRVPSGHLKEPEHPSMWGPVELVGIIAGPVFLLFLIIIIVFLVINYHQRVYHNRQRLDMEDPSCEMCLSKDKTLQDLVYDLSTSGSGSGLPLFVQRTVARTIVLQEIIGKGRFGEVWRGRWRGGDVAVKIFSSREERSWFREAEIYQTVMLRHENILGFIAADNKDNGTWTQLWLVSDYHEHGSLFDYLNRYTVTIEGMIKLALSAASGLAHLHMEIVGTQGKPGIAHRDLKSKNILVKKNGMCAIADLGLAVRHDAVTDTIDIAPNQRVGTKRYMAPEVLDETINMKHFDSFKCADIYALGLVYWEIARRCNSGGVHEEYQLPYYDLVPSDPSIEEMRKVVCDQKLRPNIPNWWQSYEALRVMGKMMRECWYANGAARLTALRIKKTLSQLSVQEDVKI

[1] = target: Inhibitor of nuclear factor kappa-B kinase subunit epsilon (Homo sapiens, UniProt Q14164); assay: Inhibition of recombinant full length human IKKepsilon using casein as substrate after 40 mins by [gamma-33ATP] by radiometric scintillation counting analysis
Inhibitor of nuclear factor kappa-B kinase subunit epsilon, sequence (Q14164 whole entry): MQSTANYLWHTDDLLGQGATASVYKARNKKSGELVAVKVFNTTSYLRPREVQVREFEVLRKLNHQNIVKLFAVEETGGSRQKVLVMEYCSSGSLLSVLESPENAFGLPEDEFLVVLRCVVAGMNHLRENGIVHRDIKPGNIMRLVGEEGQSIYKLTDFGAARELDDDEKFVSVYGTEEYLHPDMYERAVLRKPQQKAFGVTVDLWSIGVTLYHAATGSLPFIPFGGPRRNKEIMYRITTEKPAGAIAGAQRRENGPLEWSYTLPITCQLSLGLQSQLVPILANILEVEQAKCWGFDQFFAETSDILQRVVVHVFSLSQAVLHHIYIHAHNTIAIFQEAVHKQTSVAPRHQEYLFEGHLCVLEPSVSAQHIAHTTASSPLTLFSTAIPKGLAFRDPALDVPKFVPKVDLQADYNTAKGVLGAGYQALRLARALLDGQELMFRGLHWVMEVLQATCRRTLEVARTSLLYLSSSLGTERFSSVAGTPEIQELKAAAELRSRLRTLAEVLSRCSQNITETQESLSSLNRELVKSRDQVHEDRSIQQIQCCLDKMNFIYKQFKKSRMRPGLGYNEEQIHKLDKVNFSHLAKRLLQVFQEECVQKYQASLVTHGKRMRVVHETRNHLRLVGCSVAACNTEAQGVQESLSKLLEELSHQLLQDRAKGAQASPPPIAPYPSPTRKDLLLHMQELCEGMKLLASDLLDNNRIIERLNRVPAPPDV

[2] = target: RAF proto-oncogene serine/threonine-protein kinase (Homo sapiens, UniProt P04049, Y340D/Y341D); assay: Inhibition of recombinant human C-Raf Y340D/Y341D double mutant (306 to end residues) using poly(Glu, Tyr) 4:1 as substrate incubated 40 mins in presence of [gamma-33ATP] by radiometric scintillation counting analysis
RAF proto-oncogene serine/threonine-protein kinase, sequence (P04049 whole entry Y340D/Y341D): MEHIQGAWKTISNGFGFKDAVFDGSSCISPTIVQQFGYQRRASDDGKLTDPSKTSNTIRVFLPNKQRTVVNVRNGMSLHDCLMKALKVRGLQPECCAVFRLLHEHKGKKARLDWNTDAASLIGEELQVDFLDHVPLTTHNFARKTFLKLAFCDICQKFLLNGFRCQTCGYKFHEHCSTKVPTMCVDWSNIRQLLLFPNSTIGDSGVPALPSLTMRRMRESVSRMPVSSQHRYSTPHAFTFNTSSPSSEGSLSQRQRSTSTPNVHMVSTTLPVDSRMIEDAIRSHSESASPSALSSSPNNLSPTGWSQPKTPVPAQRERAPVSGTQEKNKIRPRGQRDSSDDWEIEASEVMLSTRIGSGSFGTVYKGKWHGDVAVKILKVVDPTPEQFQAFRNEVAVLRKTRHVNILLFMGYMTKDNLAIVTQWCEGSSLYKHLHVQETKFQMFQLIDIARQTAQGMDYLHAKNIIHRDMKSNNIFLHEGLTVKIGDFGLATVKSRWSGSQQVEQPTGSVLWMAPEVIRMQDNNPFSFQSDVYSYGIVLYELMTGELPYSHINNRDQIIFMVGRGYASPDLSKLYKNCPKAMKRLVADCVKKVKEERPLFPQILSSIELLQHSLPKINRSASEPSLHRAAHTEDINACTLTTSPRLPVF

[3] = target: Serine/threonine-protein kinase 35 (Homo sapiens, UniProt Q8TDR2); assay: Inhibition of recombinant full length human CLIK1 at 10 uM using RSRSRSRSRSRS as substrate measured after 40 mins in presence of [gamma33P]ATP by radiometric scintillation counting analysis
Serine/threonine-protein kinase 35, sequence (Q8TDR2 whole entry): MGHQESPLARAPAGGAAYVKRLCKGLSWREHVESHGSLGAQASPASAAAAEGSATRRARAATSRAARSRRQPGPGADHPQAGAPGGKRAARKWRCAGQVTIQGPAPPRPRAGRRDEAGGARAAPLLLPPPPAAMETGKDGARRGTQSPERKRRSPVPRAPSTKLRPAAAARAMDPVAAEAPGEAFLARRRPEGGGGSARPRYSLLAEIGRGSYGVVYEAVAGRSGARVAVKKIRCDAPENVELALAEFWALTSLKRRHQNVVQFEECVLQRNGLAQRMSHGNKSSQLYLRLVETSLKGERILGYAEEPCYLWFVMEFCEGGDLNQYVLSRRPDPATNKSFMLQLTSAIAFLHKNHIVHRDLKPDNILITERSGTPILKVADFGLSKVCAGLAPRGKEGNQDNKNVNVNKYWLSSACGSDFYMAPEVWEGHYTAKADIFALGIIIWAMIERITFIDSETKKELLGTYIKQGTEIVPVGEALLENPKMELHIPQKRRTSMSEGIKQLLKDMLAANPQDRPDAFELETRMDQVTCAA

[4] = target: MAP/microtubule affinity-regulating kinase 4 (Homo sapiens, UniProt Q96L34); assay: Inhibition of recombinant full length human MARK4 using KKKVSRSGLYRSP as substrate incubated for 40 mins in presence of [gamma-33ATP by radiometric scintillation counting analysis
[5] = target: Mitogen-activated protein kinase kinase kinase 20 (Homo sapiens, UniProt Q9NYL2); assay: Inhibition of recombinant full-length human ZAK using MBP as substrate incubated for 40 mins in presence of [gamma33P]ATP by radiometric scintillation counting analysis
Mitogen-activated protein kinase kinase kinase 20, sequence (Q9NYL2 whole entry): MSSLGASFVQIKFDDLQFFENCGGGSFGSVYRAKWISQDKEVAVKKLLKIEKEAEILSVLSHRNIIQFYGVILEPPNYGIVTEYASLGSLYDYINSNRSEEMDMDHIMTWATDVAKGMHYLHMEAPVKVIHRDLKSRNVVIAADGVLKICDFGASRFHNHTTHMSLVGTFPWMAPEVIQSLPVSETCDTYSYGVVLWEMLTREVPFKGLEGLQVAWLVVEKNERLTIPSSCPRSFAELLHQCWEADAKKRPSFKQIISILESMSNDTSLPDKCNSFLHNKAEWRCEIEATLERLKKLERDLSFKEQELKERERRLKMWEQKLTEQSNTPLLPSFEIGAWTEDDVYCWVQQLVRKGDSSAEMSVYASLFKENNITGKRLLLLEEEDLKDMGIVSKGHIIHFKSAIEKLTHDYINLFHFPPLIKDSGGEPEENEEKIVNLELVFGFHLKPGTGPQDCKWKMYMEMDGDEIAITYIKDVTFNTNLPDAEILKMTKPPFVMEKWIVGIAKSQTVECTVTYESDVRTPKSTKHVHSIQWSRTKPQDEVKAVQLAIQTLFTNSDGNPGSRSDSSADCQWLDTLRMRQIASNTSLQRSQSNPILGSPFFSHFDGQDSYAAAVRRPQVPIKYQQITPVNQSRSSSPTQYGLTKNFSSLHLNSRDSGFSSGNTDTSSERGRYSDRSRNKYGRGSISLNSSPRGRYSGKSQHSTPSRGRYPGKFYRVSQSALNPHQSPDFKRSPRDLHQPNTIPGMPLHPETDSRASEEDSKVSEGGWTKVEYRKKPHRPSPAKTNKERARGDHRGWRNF

Activin receptor type-1 = Activin receptor type-1 (Homo sapiens, UniProt Q04771); assay: Inhibition of human recombinant ALK2 (147 to end residues) using casein as substrate incubated for 40 mins in presence of [gamma-33P]ATP by radiometric scintillation counting analysis
Activin receptor type-1, sequence (Q04771 whole entry): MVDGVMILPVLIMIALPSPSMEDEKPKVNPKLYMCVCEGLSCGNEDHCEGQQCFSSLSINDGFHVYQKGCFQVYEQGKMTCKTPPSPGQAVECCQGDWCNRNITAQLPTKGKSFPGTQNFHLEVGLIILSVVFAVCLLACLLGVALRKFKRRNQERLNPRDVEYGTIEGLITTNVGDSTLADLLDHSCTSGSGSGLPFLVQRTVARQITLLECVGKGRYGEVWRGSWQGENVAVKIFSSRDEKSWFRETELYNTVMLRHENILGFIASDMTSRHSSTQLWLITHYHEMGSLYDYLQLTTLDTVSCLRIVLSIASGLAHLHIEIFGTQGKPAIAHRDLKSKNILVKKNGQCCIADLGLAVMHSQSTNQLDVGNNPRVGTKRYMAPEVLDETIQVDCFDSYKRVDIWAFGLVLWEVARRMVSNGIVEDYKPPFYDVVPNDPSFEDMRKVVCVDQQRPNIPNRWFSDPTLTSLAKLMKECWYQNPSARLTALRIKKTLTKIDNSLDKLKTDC

[6] = target: Cytoplasmic tyrosine-protein kinase BMX (Homo sapiens, UniProt P51813); assay: Inhibition of recombinant full length human BMX using poly(Glu, Tyr) 4:1 as substrate incubated for 40 mins in presence of [gamma-33ATP] by radiometric scintillation counting analysis
Cytoplasmic tyrosine-protein kinase BMX, sequence (P51813 whole entry): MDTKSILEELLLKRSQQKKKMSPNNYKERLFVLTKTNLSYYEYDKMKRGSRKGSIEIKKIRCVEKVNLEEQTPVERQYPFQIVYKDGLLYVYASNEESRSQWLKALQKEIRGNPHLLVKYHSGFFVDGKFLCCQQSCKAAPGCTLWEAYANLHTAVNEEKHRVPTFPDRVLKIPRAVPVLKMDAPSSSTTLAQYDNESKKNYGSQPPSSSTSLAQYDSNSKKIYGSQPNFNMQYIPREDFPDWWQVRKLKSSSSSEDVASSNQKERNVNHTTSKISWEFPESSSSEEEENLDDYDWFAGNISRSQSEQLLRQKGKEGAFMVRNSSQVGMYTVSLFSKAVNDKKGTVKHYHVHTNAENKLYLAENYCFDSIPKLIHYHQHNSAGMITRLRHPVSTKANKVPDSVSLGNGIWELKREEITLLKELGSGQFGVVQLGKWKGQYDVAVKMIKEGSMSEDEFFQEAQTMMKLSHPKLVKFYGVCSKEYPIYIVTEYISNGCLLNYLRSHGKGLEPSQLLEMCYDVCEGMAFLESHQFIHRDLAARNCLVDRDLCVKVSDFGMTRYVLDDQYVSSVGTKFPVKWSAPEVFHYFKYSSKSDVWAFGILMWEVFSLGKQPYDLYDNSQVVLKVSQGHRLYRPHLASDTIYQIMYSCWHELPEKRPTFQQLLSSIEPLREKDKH

Measured: IC50

CN(C)c1ccc(C(=O)Nc2cccc(NC(=O)COc3ccc4c(=O)ccoc4c3)c2)cc1
> 10 µM: all assays above
